For assay [1], the system named is engineered cell lines. Put plainly: Selectivity across the engineered cell lines (calcein AM IC50 ratios). Particulars: from selectivity ratio for each subsequent pair of cell lines in a series. Format: cell-based, human. As for the experimental part: To calculate this selectivity score between two cell lines, the IC50 for a compound in one cell line was divided by the IC50 for the same compound in a second cell line. […] The “tumor selectivity score” was calculated for each compound, by dividing the IC50 value for the compound in the parental, primary BJ cells by the IC50 value for the compound in engineered BJ-TERTALT/ST/RAS^V12 cells, containing all four genetic elements required to create tumorigenic cells (Table 1).
Applicants sought to determine the genetic basis of selectivity for each compound. That is, for each compound, they attempted to define the gene or combination of genes responsible for rendering cells sensitive to the compound (Table 1).
The IC50 in primary BJ cells was divided by the IC50 in BJ-TERT/LT/ST/RAS^V12 tumorigenic cells to obtain a tumor selectivity ratio for each compound. The compound selectivity for each genetic element was determined by calculating the selectivity ratio for each subsequent pair of cell lines in a series.

Assay [2] deals with BJ primary cells. Put plainly: Sensitization of BJ primary cells by co-treatment (calcein AM viability). Particulars: BJ (or BJ-TERT) cells, simultaneous treatment with camptothecin. The class given is cell-based, human. The text has this:
(A-C) Western blot of lysates from BJ, BJ-TERT, BJ-TERT/LT/ST, BJ-TERT/LT/ST/RAS^V12, BJ-TERT/LT/RAS^V12 and BJ-TERT/LT/RAS^V12/ST cells with an antibody directed against topoisomerase II (A) or TOPI (B, C). In panel (C), cells were transfected with a siRNA directed against TOPI, lamic A/C or with a control double strand DNA duplex of the same length (TOPI dsDNA). In each case, the blot was probed with an antibody against eIF-4E to identify differences in the amount of protein loaded. The relative amount is quantitated below each band. (D) A TOPI siRNA prevents cell death caused by camptothecin in engineered tumor cells. Cell number was determined after transfection with a siRNA directed against TOPI and treatment with the indicated concentrations of camptothecin. (E) Okadaic acid, an inhibitor of PP2A and other cellular phosphatases, sensitizes primary human cells to camptothecin. BJ primary cells were treated simultaneously with the indicated concentrations of both camptothecin and okadaic acid and the effect on calcein AM viability staining was determined. […] BJ primary cells were treated with the indicated concentrations of okadaic acid and the expression level of TOPI was determined by western blot. The relative amount is quantitated below each band.
The compounds in group (iii) are camptothecin (CPT) and a novel compound from a combinatorial library, which Applicants have named erastin, for eradicator of RAS and ST-expressing cells (FIG. 2). Efficient CPT-induced and erastin-induced cell death requires the presence of both ST and RAS^V12 (FIGS. 3 and 4 and Table 1). Although CPT and erastin have a similar genetic basis of selectivity, they have distinct mechanisms of action. CPT is partially active in cells lacking RB function (via expression of E7), whereas erastin is not, and CPT requires two days to cause death in BJ-TERT/LT/ST/RAS^V12 cells, while erastin is 100% effective within 18 hours (FIGS. 3 and 4). […]

The test system of assay [3] is HT-1080 xenografts. Put plainly: HT-1080 tumor treatment study. The class given is in vivo, mouse. Particulars: nude Balb/c mice; 100 or 50 mg/Kg, QD×5 days, IP. The procedure:
Nude Balb/c (Nu/Nu strain, Charles River Laboratories), female, 5-6 week old (˜20 g average body weight).
Both compounds were formulated in an identical manner. For the 100 mg/kg dose level, each compound was delivered at a concentration of 10.0 mg/ml, in an injection volume of 0.2 ml. For the 50 mg/kg dose level, each compound was delivered at a concentration of 5.0 mg/ml, in an injection volume of 0.2 ml. For both dose levels, the vehicle contained 0.025% Tween-80, 0.01% benzyl alcohol, 35 mM acetic acid (HOAc), 100 mM potassium phosphate-buffer, and 32 mM sucrose, pH=6.5.
• A: PRLX compound 6 @ 100 mg/Kg, QD×5 days, IP, n=8 • B: PRLX compound 6 @ 50 mg/Kg, QD×5 days, IP, n=8 • C: PRLX compound 5 @ 100 mg/Kg, QD×5 days, IP, n=8 • D: PRLX compound 5 @ 50 mg/Kg, QD×5 days, IP, n=8 • E: Vehicle Control, QD×5 days, IP, n=8 • F: Untreated Control, n=8 Treatment Schedule:
Beginning when the mean tumor volume reached ˜200 mm^3, and continuing through day 5, every day, each animal was administered a single IP injection of one of the above treatments, for a total of 5 doses. […]
Starting on Day 1, all animals were weighed, and tumor dimensions (length (L) and width (W)) were measured, every other day. […]
The resulting tumor volume values were averaged for each study group for each time point, and were then plotted against time. Variance was expressed as standard error of the mean (±SEM).

Assay [4] concerns PANC-1 xenografts. Put plainly: PANC-1 tumor treatment study. Format: in vivo. To be noted: immunodeficient nude mouse; once a day for five consecutive days. The procedure:
The experimental plan for the PANC-1 study was essentially identical to that of the HT-1080 study outlined above in Example 10 with the following exceptions: approximately 30-40 mg fragment of passaged PANC-1 tumor tissue was implanted subcutaneously in the right flank of an immunodeficient nude mouse. Tumor growth was monitored daily and when the tumors reached approximately 100 mm^3, animals harboring similarly sized tumors were group matched and compound dosing was initiated. Administration of compound 5 occurred once a day for five consecutive days at the doses listed below. In the PANC-1 xenografts, gemcitabine, administered at the maximum tolerated dose for the model, was used as a control. The gemcitabine regimen was 180 mg/kg […] on every third day over a period of 9 days.

Assay [5] relates to BJ-TERT/LT/ST/RAS^V12 tumorigenic cells. In words: Calcein AM viability assay, BJ-TERT/LT/ST/RAS^V12 cells. Format: cell-based, human. The text has this:
Described here is work carried out to identify compounds with increased potency or activity in the presence of hTERT, LT, ST, E6, E7 or RAS^V12. Although the work described herein made use of hTERT, LT, ST, E6, E7 and RAS^V12 as transforming genes, future studies can make use of a wide variety of cancer-associated alleles using this methodology in order to define the signaling networks that involve many oncogenes and tumor suppressors. Engineered cell lines with these genetic elements were used to screen 23,550 compounds, including 20,000 compounds from a combinatorial library, 1,990 compounds from the National Cancer Institute diversity collection, and 1,540 biologically active known compounds that were selected and purchased by Applicant and formatted into a screenable collection. […] Cell viability was measured using the dye calcein acetoxymethyl ester (calcein AM) (Wang et al., 1993, Hum. Immunol. 37, 264-270), which is a non-fluorescent compound that freely diffuses into cells. […]
Calcein acetoxylmethyl ester (AM) is a cell membrane-permeable, non-fluorescent compound that is cleaved by intracellular esterases to form the anionic, cell-impermeable, fluorescent compound calcein. […] Total fluorescence intensity in each well was recorded on a Packard Fusion platereader, and converted to a percent inhibition of signal by subtracting the instrument background and dividing by the average signal obtained when cells were not treated with any compound. […]
Mean RFU (relative fluorescence units) for untreated cells was calculated by averaging columns 1, 2, and 23 (wells with cells but lacking compounds). The calcein background was calculated by averaging column 24 (wells with calcein, but lacking cells). Percentage inhibition of each well was calculated as [1−(RFU−calcein control)/(untreated cell−calcein control)*100]. […]

With `COc1cccc2c1C(=O)c1c(O)c3c(c(O)c1C2=O)C[C@@](O)(C(C)=O)C[C@@H]3O[C@H]1C[C@H](N)[C@H](O)[C@H](C)O1` [Daunorubicin, daunorubicin], the “Genetic basis of Selectivity” value in assay [1] is “TERT/RB”.
Consider `COc1cc([C@@H]2c3cc4c(cc3[C@H](O)[C@H]3COC(=O)[C@H]23)OCO4)cc(OC)c1OC` [podophyllotoxin], for which, in assay [2], the sensitization to camptothecin entry was “does not sensitize BJ or BJ-TERT cells to CPT”.
As to `CS[C@H]1SC[C@H]2C(=O)N(C)[C@@H](C(C)C)C(=O)OC[C@@H](NC(=O)c3cnc4ccccc4n3)C(=O)N[C@@H](C)C(=O)N(C)[C@@H]1C(=O)N(C)[C@@H](C(C)C)C(=O)OC[C@@H](NC(=O)c1cnc3ccccc3n1)C(=O)N[C@@H](C)C(=O)N2C` [Echinomycin, echinomycin], the “Genetic basis of Selectivity” value in assay [1] is “non-specific”.
Still for that read-out and setting: in the case of `O=C1c2c(O)ccc(O)c2C(=O)c2c(NCCNCCO)ccc(NCCNCCO)c21` [Mitoxantrone, mitoxantrone] it was “TERT/RB”.
For `CCOc1ccccc1-n1c(C(C)N2CCNCC2)nc2ccccc2c1=O` (stereo not shown) [Compound 6], the “antitumor activity in HT-1080 xenografts (tumor volume)” value in assay [3] was “tumor growth inhibition”. In addition, the “antitumor activity in PANC-1 xenografts (tumor volume)” value in assay [4] is reported as “tumor growth inhibition”.
`COc1cccc2c1C(=O)c1c(O)c3c(c(O)c1C2=O)C[C@@](O)(C(=O)CO)C[C@@H]3O[C@H]1C[C@H](N)[C@H](O)[C@H](C)O1` [Doxorubicin, doxorubicin]: in assay [1], the “Genetic basis of Selectivity” value is listed as “TERT/RB”.
As for `CCOc1ccccc1-n1c(CN2CCNCC2)nc2ccccc2c1=O` [Compound 5, 3-(2-ethoxyphenyl)-2-(piperazin-1-ylmethyl)quinazolin-4(3H)-one], in assay [3], the “antitumor activity in HT-1080 xenografts (tumor volume)” value is reported as “robust tumor regression”. For the same compound, the “antitumor activity in PANC-1 xenografts (tumor volume)” value in assay [4] is on record as “tumor regression”.
Take `COc1ccc(C[C@H]2C(=O)N[C@@H](C)C(=O)N(C)[C@@H]3C(=O)N(C)[C@@H](Cc4ccc(O)c(c4)Oc4ccc(cc4)[C@@H]3O)C(=O)N[C@H](C)C(=O)N[C@@H](C)C(=O)N2C)cc1` [Bouvardin]: the “Genetic basis of Selectivity” value in assay [1] was “non-specific”.
Consider `CCOc1ccccc1-n1c(C(C)N2CCN(C(=O)COc3ccc(Cl)cc3)CC2)nc2ccccc2c1=O` (stereo not shown) [Erastin, erastin], for which the “effectiveness of cell killing” value in assay [5] (BJ-TERT/LT/ST/RAS^V12 cells, within 18 hours) is on record as 100%. For the same compound, the “time to irreversible, non-apoptotic cell death” value in assay [5] (ST- and RAS^V12-dependent) is 12 to 24 h.
On to `NC(=O)c1cn([C@@H]2O[C@H](CO)[C@@H](O)[C@H]2O)c2ncnc(N)c12` [Sangivamycin, sangivamycin], for which the “Genetic basis of Selectivity” value in assay [1] is on record as “non-specific”.

These data come from patent US7615554B2, “Erastin and erastin binding proteins, and uses thereof” (Prolexys Pharmaceuticals, Inc., priority 2005, dated 2009).
